Literature values in paper PMC9465641 (Frontiers in Pharmacology, 2022).

Set-up: method as in Wang et al., 2021; Chen et al., 2022
Details: range reported previously; ref Wang et al., 2021; Chen et al., 2022; cited from earlier work

Which CL does the source give for polymyxin B here?
The CL was 1.59 to 2.86 L/h.
